Series [1] deals with healthy subjects. Conditions: Phase 4.
Description: (§1) Mild hypothermia is induced and maintained in healthy subjects for up to several hours. […] Each volunteer is cooled using contact-cooling pads (Arctic Sun Energy Transfer Pads™, Medivance, Inc., Louisville, Colo., U.S.A.). Contact-cooling pads are applied to contact the subjects, and water at a controlled temperature is delivered to and circulated through the contact pads to effect the controlled cooling of each volunteer.
In series [2] the test system is healthy subjects. To be noted: Phase 6. The text has this:
Mild hypothermia is induced and maintained in healthy subjects for up to several hours. Table 1 summarizes data concerning the subjects for each phase of testing (Phases 1, 3a, 4, 5 and 6). Each volunteer is cooled using contact-cooling pads (Arctic Sun Energy Transfer Pads™, Medivance, Inc., Louisville, Colo., U.S.A.). Contact-cooling pads are applied to contact the subjects, and water at a controlled temperature is delivered to and circulated through the contact pads to effect the controlled cooling of each volunteer.
Five contact-cooling pads are applied to the thighs, back and abdomen of each subjects, and actively cooled. The pads cover and contact about 0.6 square meter of the subject's exterior body surface area, which is the area in heat transfer communication between the pads and the subject's body. Temperatures are measured in the same manner as in Phase 1 except that the rectal temperature probe is connected to a control module and the rectal temperature signal is used by the control module to adjust inlet water temperature via a feedback control algorithm to achieve a target core body temperature of 34.5° C.
A single oral dose of acetaminophen (1000 mg), is administered within 20 minutes prior to treatment. A bolus of IV meperidine (Demerol®, 50-100 mg) is given within 5 minutes of the start of active cooling. Additional doses of meperidine are administered to maintain comfort and to prevent shivering. Active cooling and maintenance of hypothermia continues for five hours. As in the Phase 1, the subjects are actively re-warmed to a tympanic and rectal temperatures of at least of 36° C. prior to termination of the experiment. Shivering, comfort, oxyhemoglobin saturation, and arterial blood pressure are recorded as in Phase 1.
Phase 5 Phase 5 proceeds as described for Phase 3a, except as noted. The temperature of water circulated to the contact-cooling pads is controlled to achieve a target core body temperature of 34.5° C. In addition to meperidine (Demerol®), subjects are also given an IV dose of 8 mg ondansetron (hydrochloride salt, Glaxo Wellcome). […]

For series [3], the system named is healthy subjects. Description: Phase 1: cooling of healthy subjects with contact-cooling pads under meperidine. The format is in vivo, human. As for the experimental part:
Four contact pads are applied to the thighs and chest of each subject and each subject is rapidly cooled with an objective of reducing core body temperature to 34-35° C. Core body temperatures are measured at the tympanic membrane and the rectum. Mean skin-surface temperature is determined from the weighted average of calf, thigh, chest, and upper arm skin temperatures. Thermoregulatory vasoconstriction is evaluated using forearm minus fingertip skin-temperature gradients. Temperatures are measured using Mon-a-Therm™ themocouple probes connected to Mallinckrodt Model 6510 two-channel electronic thermometers having an accuracy near 0.1° C. (Mallinckrodt Anesthesia Products, St. Louis, Mo., U.S.A.). Temperatures are recorded before cooling is started (i.e., baseline) and subsequently at 15-minute intervals.
Each of subjects 1-5 is administered a single dose of acetomiophen (1000 mg) within 20 minutes prior to treatment and is administered a bolus of intravenous (IV) meperidine (Demerol®, 25-75 mg) within 5 minutes of the start of cooling. Subjects also receive initial doses of chlorpromazine (Thorazine®, 12.5-25 mg, IV). Active cooling is initiated and the inlet water temperature is controlled to achieve a target tympanic temperature between 34° C. and 35° C. Additional doses of meperidine and/or chloropromazine are administered to maintain comfort and to prevent shivering. Active cooling and maintenance of hypothermia continues for up to five hours, after which subjects are actively re-warmed to tympanic and rectal temperatures of at least 36° C.
The presence of shivering is noted by physical examination, electromyographic artifact on continuous electrocardiography (ECG), or by subject report. Overall thermal comfort is evaluated at 15-min intervals with a 100-mm-long visual analog scale (VAS) on which 0 mm defines the worst imaginable cold, 50 mm identifies thermal neutrality, and 100 mm indicates unbearable heat. A new, unmarked scale is used for each assessment. Heart rate and oxyhemoglobin saturation are monitored using ECG and pulse oximetry; arterial blood pressure is recorded oscillometrically at 15-minute intervals.

Series [4] relates to healthy subjects. Description: Phase 5: cooling under meperidine plus IV ondansetron. The class given is in vivo, human.
Series [5] concerns healthy subjects. Description: Phase 3a: cooling with five contact-cooling pads under meperidine. The class given is in vivo, human.
Description: as §1
Series [6] deals with healthy subjects. Description: Subsequent test similar to Phase 5 with supplemental ondansetron dose. Conditions: one subject; ondansetron 8 mg initial dose and 8 mg supplemental dose 3.5 hours later. The class given is in vivo, human. As to the method: Moreover, during a subsequent test conducted in a manner similar to that described for Phase 5, a subject is administered an initial dose of 8 mg of the ondansetron followed by a supplemental dose of 8 mg of the ondansetron administered 3.5 hours later.

Setting [7] is: meperidine plus buspirone, mean of 4 subjects.
[8] abbreviates: meperidine, ondansetron and magnesium sulfate, mean of 8 subjects.
Where [9] appears, read: meperidine regimen, mean of 5 subjects.
[10] abbreviates: Phase 3a, meperidine regimen, individual subjects.
[11] abbreviates: Phase 3a, meperidine regimen, mean of 5 subjects.
[12] abbreviates: Phase 5, meperidine plus ondansetron, mean of 6 subjects.

Data on four molecules can be found in patent publication US7361186B2, “Active body cooling with vasodilation to reduce body temperature” (priority 2003, dated 2008).

Where “and” joins values, the source holds several entries; their conditions need not be identical. Equal values may be shown once. Read-outs that look alike come from different tables or passages of the source.

In the case of `O=C1CC2(CCCC2)CC(=O)N1CCCCN1CCN(c2ncccn2)CC1` [buspirone], in the series with healthy subjects [1] (setting [7]), the “Cooling rate to 35° C., Mean ± SD” value worked out at 1.2 ± 0.4 ° C./hr and the “Time to 35° C., Mean ± SD” value was determined as 109 ± 40 min. Further, the “effect on incidence of nausea” value in the series on healthy subjects [1] (oral buspirone 30-60 mg with meperidine, four subjects) was “did not reduce the incidence of nausea”.

Regarding `O=S(=O)([O-])[O-].[Mg+2]` [magnesium sulfate], the “indications of vasodilation (Tdig being larger than Tfore)” value with healthy subjects [2] (early stages of cooling) was “seven of eight subjects”. For the same molecule, in the series with healthy subjects [2] (setting [8]), the “Cooling rate to 35° C., Mean ± SD” value was found to be 1.3 ± 0.4 ° C./hr and the “Time to 35° C., Mean ± SD” value is on record as 86 ± 23 min.

For `CCOC(=O)C1(c2ccccc2)CCN(C)CC1` [meperidine], the “Time to 35° C.” value in the series with healthy subjects [3] (four contact pads, acetaminophen 1000 mg, IV meperidine 25-75 mg bolus plus additional doses, chlorpromazine, tympanic temperature, individual subjects) is 105 min and 78 min and 41 min and 82 min and 81 min; in the series on healthy subjects [5] (Phase 3a, five contact-cooling pads, oral acetaminophen 1000 mg, IV meperidine 50-100 mg bolus plus additional doses, tympanic temperature, individual subjects) it was 64 min and 180 min and 94 min and 56 min and 46 min. Besides, the “Nausea or Vomiting During Treatment” value with healthy subjects [3] (meperidine regimen, individual subjects) is “None”; with healthy subjects [5] (setting [10]), “Nausea end (2×) and None and Nausea early, end and Nausea, vomiting mid”. Also, the “Cooling rate to 35° C., Mean ± SD” value was 1.5±0.6 ° C./hr and 1.5 ± .6 ° C./hr in the series with healthy subjects [3] (setting [9]); 1.6 ± 0.5 ° C./hr in the series on healthy subjects [5] (setting [11]). Moreover, the entries for the “Time to 35° C., Mean ± SD” value in the series with healthy subjects [3] (setting [9]) and with healthy subjects [5] (setting [11]) were 77 ± 23 min and 88 ± 54 min, respectively. Also, the “Cooling rate to 35° C.” value was 1.0 ° C./hr and 1.5 ° C./hr and 2.6 ° C./hr and 1.2 ° C./hr and 1.4 ° C./hr with healthy subjects [3] (meperidine regimen, tympanic temperature, individual subjects); 1.9 ° C./hr (2×) and .9 ° C./hr and 1.2 ° C./hr and 2.1 ° C./hr in the series with healthy subjects [5] (setting [10]). Further, in the series with healthy subjects [4] (Phase 5, one subject withdrawn, facial rash), the allergic reaction result was “mild allergic reaction”. In addition, the Systolic blood pressure in the series with healthy subjects [5] (Phase 3a, 180 min timepoint, baseline 122±13, p=0.042) stood at 140±20 mm Hg. Further, the “change in heart rate, diastolic blood pressure, or blood oxygenation compared with baseline” value in the series on healthy subjects [5] (Phase 3a, all subjects, during cooling) is recorded as “no statistically significant change”. The respiratory compromise entry with healthy subjects [5] (Phases 1 and 3a) is given as “no respiratory compromise”. Moreover, in the series with healthy subjects [5] (Phases 1 and 3a pooled, all cases in Phase 3a), the “nausea observed, share of subjects” value is on record as 30 % of subjects. Further, the “indications of vasodilation (Tdig being larger than Tfore)” value with healthy subjects [5] (Phases 3a, 4 and 5 (no vasodilation drug), early stages of cooling) is reported as “only a few of the subjects”.

Take `Cc1nccn1CC1CCc2c(c3ccccc3n2C)C1=O` (stereo not drawn) [ondansetron]: the “Cumulative Heat Transfer From Subject, 5 Min” value in the series on healthy subjects [4] (Phase 5, 5 Min after initiation of cooling, gross values, corrected values approximately 15% smaller, individual subjects) is 53.91 kcal and 37.16 kcal and 48.61 kcal and 45.90 kcal and 44.85 kcal. Moreover, the “Cumulative Heat Transfer From Subject, 10 Min” value in the series on healthy subjects [4] (Phase 5, 10 Min after initiation of cooling, gross values, individual subjects) is 96.81 kcal and 73.79 kcal and 84.78 kcal and 82.99 kcal and 79.01 kcal. The “Cumulative Heat Transfer From Subject, 15 Min” value in the series with healthy subjects [4] (Phase 5, 15 Min after initiation of cooling, gross values, individual subjects) was 136.59 kcal and 109.68 kcal and 124.12 kcal and 118.51 kcal and 111.35 kcal. In addition, in the series on healthy subjects [4] (Phase 5, 20 Min after initiation of cooling, gross values, individual subjects), the “Cumulative Heat Transfer From Subject, 20 Min” value was 175.59 kcal and 142.73 kcal and 163.01 kcal and 151.96 kcal and 142.43 kcal. The “Cumulative Heat Transfer From Subject, 25 Min” value in the series on healthy subjects [4] (Phase 5, 25 Min after initiation of cooling, gross values, individual subjects) was 214.2 kcal and 169.85 kcal and 200.85 kcal and 184.79 kcal and 172.00 kcal. For the same molecule, the “Cumulative Heat Transfer From Subject, 30 Min” value in the series on healthy subjects [4] (Phase 5, 30 Min after initiation of cooling, gross values, individual subjects) is 252.02 kcal and 184.74 kcal and 239.02 kcal and 218.02 kcal and 201.44 kcal. Besides, the “Cumulative Heat Transfer From Subject, 45 Min” value with healthy subjects [4] (Phase 5, 45 Min after initiation of cooling, gross values, individual subjects) was 360.32 kcal and 205.19 kcal and 354.67 kcal and 309.30 kcal and 282.20 kcal. In addition, in the series with healthy subjects [4] (Phase 5, 60 Min after initiation of cooling, gross values, individual subjects), the “Cumulative Heat Transfer From Subject, 60 Min” value was 466.28 kcal and 212.94 kcal and 467.30 kcal and 346.56 kcal and 353.28 kcal. The “Cumulative Heat Transfer From Subject, 75 Min” value in the series on healthy subjects [4] (Phase 5, 75 Min after initiation of cooling, gross values, individual subjects) was 567.71 kcal and 284.94 kcal and 574.88 kcal and 361.63 kcal and 423.43 kcal. In the series with healthy subjects [4] (Phase 5, 90 Min after initiation of cooling, gross values, individual subjects), the “Cumulative Heat Transfer From Subject, 90 Min” value was 667.78 kcal and 348.14 kcal and 676.99 kcal and 367.39 kcal and 436.35 kcal. The “Cumulative Heat Transfer From Subject, 105 Min” value in the series with healthy subjects [4] (Phase 5, 105 Min after initiation of cooling, gross values, individual subjects) was 767.83 kcal and 375.85 kcal and 708.76 kcal and 366.43 kcal and 458.46 kcal. Further, the “Cumulative Heat Transfer From Subject, 120 Min” value in the series with healthy subjects [4] (Phase 5, 120 Min after initiation of cooling, gross values, individual subjects) is 867.73 kcal and 407.01 kcal and 733.20 kcal and 368.56 kcal and 457.78 kcal. For the same molecule, the “effect on incidence of nausea and vomiting” value with healthy subjects [4] (Phase 5, IV ondansetron 8 mg with meperidine, relative to Phases 3a and 4) is “reduces the incidence of nausea and vomiting”. Besides, the “Time to 35° C.” value in the series on healthy subjects [4] (Phase 5, as Phase 3a (meperidine) plus IV ondansetron 8 mg, individual subjects) was 58 min and 88 min and 310 min and 189 min and 60 min and 80 min. Further, the “Cooling rate to 35° C.” value in the series on healthy subjects [4] (Phase 5, meperidine plus IV ondansetron 8 mg, individual subjects) is 1.4 ° C./hr and 1.6 ° C./hr and 0.5 ° C./hr and 0.6 ° C./hr and 1.9 ° C./hr and 1.5 ° C./hr. In the series with healthy subjects [4] (setting [12]), the “Cooling rate to 35° C., Mean ± SD” value was 1.3 ° C./hr and 1.3 ± 0.6 ° C./hr; the “Time to 35° C., Mean ± SD” value turned out to be 131 ± 100 min. Besides, the “meperidine administration relative to Phase 3a” value in the series with healthy subjects [4] (Phase 5, p=0.26, t-test) is reported as “trend toward less meperidine administration”. Further, in the series with healthy subjects [4] (Phase 5 versus Phases 1, 3a and 4), the mean comfort score result is reported as “higher”. In the series with healthy subjects [6], the nausea entry was “does not experience nausea”.
